Results published in patent US20260022142A1, “MACROCYCLIC IMMUNOMODULATORS” (Bristol-Myers Squibb Company, priority 2022, published 2026).
Bridge positions count the residues as written; N and C are the ends. Square brackets hold non-standard residues; d marks the D form. Peptide text beside a SMILES is read from it. * marks the point of attachment. ξ: configuration not given here. Phe(4-CONH2) = NC(=O)c1ccc(C[C@H](N)C(=O)O)cc1; Phe(4-COOH) = N[C@@H](Cc1ccc(C(=O)O)cc1)C(=O)O; Bip = N[C@@H](Cc1ccc(-c2ccccc2)cc1)C(=O)O; Phe(3-Me) = Cc1cccc(C[C@H](N)C(=O)O)c1; Val(3-OH) = CC(C)(O)[C@H](N)C(=O)O; Cha = N[C@@H](CC1CCCCC1)C(=O)O; Thr(3ξ) = CC(O)[C@H](N)C(=O)O; Carboxymethyl = O=C(O)C*; Orn = NCCC[C@H](N)C(=O)O; Aun = NCCCCCCCCCCC(=O)O; Dab = NCC[C@H](N)C(=O)O; Dap = NC[C@H](N)C(=O)O; AEEA = NCCOCCOCC(=O)O; Piv = CC(C)(C)C(=O)*

Molecular target: T1, PD-1/PD-L1 interaction (PE-labeled human PD-L1-Ig binding to Jurkat cell line over-expressing human PD-1) (Homo sapiens, UniProt Q15116)
T1 construct: expressed in transfected cells; host or cells: Jurkat
T1 sequence (Q15116 25-288): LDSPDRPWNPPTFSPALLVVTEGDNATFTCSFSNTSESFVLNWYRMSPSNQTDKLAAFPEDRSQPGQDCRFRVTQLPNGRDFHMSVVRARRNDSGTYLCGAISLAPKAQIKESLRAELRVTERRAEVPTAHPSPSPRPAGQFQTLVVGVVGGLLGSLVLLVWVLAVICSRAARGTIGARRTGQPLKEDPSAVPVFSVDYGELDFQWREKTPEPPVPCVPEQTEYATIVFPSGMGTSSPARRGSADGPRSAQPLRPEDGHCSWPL
Test: Jurkat-PD-1 Cell Binding High-Content Screening Assay (CBA)
Format: cell-based
Conditions: Jurkat cell line over-expressing human PD-1; PE-labeled PD-L1-Ig 20 nM final; read-out: Jurkat hPD1-PDL1 IC50
Procedure, shortened: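 Binding of fluorescent PD-L1-Ig (20 nM final) to Jurkat-PD-1 cells was measured by automated imaging after 1 h, following a 2 h compound pre-treatment at 37° C.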

SMILES | IC50 [nM]
CC(C)C[C@H]1NC(=O)[C@H](CCCN)NC(=O)[C@H](Cc2ccc(O)cc2)NC(=O)[C@H](Cc2ccc(-c3ccccc3)cc2)NC(=O)[C@H](Cc2ccc(O)cc2)NC(=O)[C@H](Cc2c[nH]c3ccccc23)NC(=O)[C@H](CC(=O)O)NC(=O)[C@H](Cc2ccc(OCC(=O)O)cc2)NC(=O)[C@H](C(C)O)NC(=O)CSC[C@@H](C(=O)N[C@@H](CCN)C(=O)NCCCCCCCCCCC(=O)O)NC(=O)[C@H](CN)NC(=O)[C@H](C(C)O)NC(=O)[C@H](CC2CCCCC2)NC(=O)[C@H](Cc2cnc[nH]2)NC1=O (stereo partly drawn) [Compound 3695] ({CH2CO}-[Thr(3ξ)]Y(Carboxymethyl)DWY[Bip]Y[Orn][dL]H[Cha][Thr(3ξ)][Dap]C[Dab][Aun]-OH; thioether N-14) | 629
Cc1cccc(C[C@@H]2NC(=O)[C@H](CC(=O)O)NC(=O)[C@H](Cc3ccc(OCC(=O)O)cc3)NC(=O)[C@H](CN)NC(=O)CSC[C@@H](C(=O)N[C@@H](CCN)C(=O)NCCCCCCCCCCC(=O)O)NC(=O)[C@H](CO)NC(=O)[C@H](Cc3cnc[nH]3)NC(=O)[C@H](CC3CCCCC3)NC(=O)[C@H](CCN)NC(=O)[C@@H](CC(C)C)NC(=O)[C@H](CCCN)NC(=O)[C@H](Cc3ccc(OCC(=O)O)cc3)NC(=O)[C@H](Cc3ccc(-c4ccccc4)cc3)NC(=O)[C@H](Cc3ccc(OCC(=O)O)cc3)NC2=O)c1 [Compound 3696] ({CH2CO}-[Dap]Y(Carboxymethyl)D[Phe(3-Me)]Y(Carboxymethyl)[Bip]Y(Carboxymethyl)[Orn][dL][Dab][Cha]HSC[Dab][Aun]-OH; thioether N-14) | 15.1
Cc1cccc(C[C@@H]2NC(=O)[C@H](CC(=O)O)NC(=O)[C@H](Cc3ccc(OCC(=O)O)cc3)NC(=O)[C@H](C(C)O)NC(=O)CSC[C@@H](C(=O)N[C@@H](CCN)C(=O)NCCCCCCCCCCC(=O)O)NC(=O)[C@H](CO)NC(=O)[C@H](Cc3cnc[nH]3)NC(=O)[C@H](CC3CCCCC3)NC(=O)[C@H](CCN)NC(=O)[C@@H](CC(C)C)NC(=O)[C@H](CCCN)NC(=O)[C@H](Cc3ccc(OCC(=O)O)cc3)NC(=O)[C@H](Cc3ccc(-c4ccccc4)cc3)NC(=O)[C@H](Cc3ccc(OCC(=O)O)cc3)NC2=O)c1 (stereo partly drawn) [Compound 3697] ({CH2CO}-[Thr(3ξ)]Y(Carboxymethyl)D[Phe(3-Me)]Y(Carboxymethyl)[Bip]Y(Carboxymethyl)[Orn][dL][Dab][Cha]HSC[Dab][Aun]-OH; thioether N-14) | 11.2
CC(C)C[C@H]1NC(=O)[C@H](CCCN)NC(=O)[C@H](Cc2ccc(O)cc2)NC(=O)[C@H](Cc2ccc(-c3ccccc3)cc2)NC(=O)[C@H](CCCCNC(=O)C(C)(C)C)NC(=O)[C@H](Cc2c[nH]c3ccccc23)NC(=O)[C@H](CC(=O)O)NC(=O)[C@H](Cc2ccc(OCC(=O)O)cc2)NC(=O)[C@H](C(C)O)NC(=O)CSC[C@@H](C(=O)NCCOCCOCC(=O)NCCCCCCCCCCC(=O)O)NC(=O)[C@H](CO)NC(=O)[C@H](Cc2cnc[nH]2)NC(=O)[C@H](CC2CCCCC2)NC(=O)[C@H](CCN)NC1=O (stereo partly drawn) [Compound 3699] ({CH2CO}-[Thr(3ξ)]Y(Carboxymethyl)DWK(Piv)[Bip]Y[Orn][dL][Dab][Cha]HSC[AEEA][Aun]-OH; thioether N-14) | 96.9
CC(C)C[C@@H]1NC(=O)[C@H](Cc2c[nH]c3ccccc23)NC(=O)[C@H](CC(=O)O)NC(=O)[C@H](Cc2ccc(OCC(=O)O)cc2)NC(=O)[C@H](CCN)NC(=O)CSC[C@@H](C(=O)NCCOCCOCC(=O)NCCCCCCCCCCC(=O)O)NC(=O)[C@H](C(C)O)NC(=O)[C@H](C(C)C)NC(=O)[C@H](CC2CCCCC2)NC(=O)[C@H](Cc2cnc[nH]2)NC(=O)[C@@H](CC(C)C)NC(=O)[C@H](CCCN)NC(=O)[C@H](C(C)C)NC(=O)[C@H](Cc2ccc(-c3ccccc3)cc2)NC1=O (stereo partly drawn) [Compound 3700] ({CH2CO}-[Dab]Y(Carboxymethyl)DWL[Bip]V[Orn][dL]H[Cha]V[Thr(3ξ)]C[AEEA][Aun]-OH; thioether N-14) | 56.7
Cc1cccc(C[C@@H]2NC(=O)[C@H](CC(=O)O)NC(=O)[C@H](Cc3ccc(OCC(=O)O)cc3)NC(=O)[C@H](C(C)O)NC(=O)CSC[C@@H](C(=O)NCCOCCOCC(=O)NCCCCCCCCCCC(=O)O)NC(=O)[C@H](Cc3cnc[nH]3)NC(=O)[C@H](C(C)O)NC(=O)[C@H](CC3CCCCC3)NC(=O)[C@H](CCN)NC(=O)[C@@H](CC(C)C)NC(=O)[C@H](CCCN)NC(=O)[C@H](C(C)C)NC(=O)[C@H](Cc3ccc(-c4ccccc4)cc3)NC(=O)[C@H](C(C)C)NC2=O)c1 (stereo partly drawn) [Compound 3703] ({CH2CO}-[Thr(3ξ)]Y(Carboxymethyl)D[Phe(3-Me)]V[Bip]V[Orn][dL][Dab][Cha][Thr(3ξ)]HC[AEEA][Aun]-OH; thioether N-14) | 23.4
Cc1cccc(C[C@@H]2NC(=O)[C@H](CC(=O)O)NC(=O)[C@H](Cc3ccc(OCC(=O)O)cc3)NC(=O)[C@H](CN)NC(=O)CSC[C@@H](C(=O)N[C@@H](CCN)C(=O)NCCCCCCCCCCC(=O)O)NC(=O)[C@H](CO)NC(=O)[C@H](Cc3cnc[nH]3)NC(=O)[C@H](CC3CCCCC3)NC(=O)[C@H](CCN)NC(=O)[C@@H](CC(C)C)NC(=O)[C@H](CCCN)NC(=O)[C@H](Cc3ccc(OCC(=O)O)cc3)NC(=O)[C@H](Cc3ccc(-c4ccccc4)cc3)NC(=O)[C@H](Cc3ccc(C(=O)O)cc3)NC2=O)c1 [Compound 3705] ({CH2CO}-[Dap]Y(Carboxymethyl)D[Phe(3-Me)][Phe(4-COOH)][Bip]Y(Carboxymethyl)[Orn][dL][Dab][Cha]HSC[Dab][Aun]-OH; thioether N-14) | 24.2
Cc1cccc(C[C@@H]2NC(=O)[C@H](CC(=O)O)NC(=O)[C@H](Cc3ccc(OCC(=O)O)cc3)NC(=O)[C@H](Cc3ccccc3)NC(=O)CSC[C@@H](C(=O)N[C@@H](CCN)C(=O)NCCCCCCCCCCC(=O)O)NC(=O)[C@H](CO)NC(=O)[C@H](Cc3cnc[nH]3)NC(=O)[C@H](CC3CCCCC3)NC(=O)[C@H](CCN)NC(=O)[C@@H](CC(C)C)NC(=O)[C@H](CCCN)NC(=O)[C@H](Cc3ccc(OCC(=O)O)cc3)NC(=O)[C@H](Cc3ccc(-c4ccccc4)cc3)NC(=O)[C@H](Cc3ccc(C(=O)O)cc3)NC2=O)c1 [Compound 3706] ({CH2CO}-FY(Carboxymethyl)D[Phe(3-Me)][Phe(4-COOH)][Bip]Y(Carboxymethyl)[Orn][dL][Dab][Cha]HSC[Dab][Aun]-OH; thioether N-14) | 70.3
Cc1cccc(C[C@@H]2NC(=O)[C@H](CC(=O)O)NC(=O)[C@H](Cc3ccc(OCC(=O)O)cc3)NC(=O)[C@H](CN)NC(=O)CSC[C@@H](C(=O)N[C@@H](CCN)C(=O)NCCCCCCCCCCC(=O)O)NC(=O)[C@H](Cc3cnc[nH]3)NC(=O)[C@H](C(C)O)NC(=O)[C@H](CC3CCCCC3)NC(=O)[C@H](CCN)NC(=O)[C@@H](CC(C)C)NC(=O)[C@H](CCCN)NC(=O)[C@H](Cc3ccc(OCC(=O)O)cc3)NC(=O)[C@H](Cc3ccc(-c4ccccc4)cc3)NC(=O)[C@H](Cc3ccc(C(=O)O)cc3)NC2=O)c1 (stereo partly drawn) [Compound 3708] ({CH2CO}-[Dap]Y(Carboxymethyl)D[Phe(3-Me)][Phe(4-COOH)][Bip]Y(Carboxymethyl)[Orn][dL][Dab][Cha][Thr(3ξ)]HC[Dab][Aun]-OH; thioether N-14) | 11.4

The remaining lines, values ahead:

IC50 [nM] | SMILES
15.6 | Cc1cccc(C[C@@H]2NC(=O)[C@H](CC(=O)O)NC(=O)[C@H](Cc3ccc(OCC(=O)O)cc3)NC(=O)[C@H](CCN)NC(=O)CSC[C@@H](C(=O)N[C@@H](CCN)C(=O)NCCCCCCCCCCC(=O)O)NC(=O)[C@H](CO)NC(=O)[C@H](C(C)(C)O)NC(=O)[C@H](CC3CCCCC3)NC(=O)[C@H](CCN)NC(=O)[C@@H](CC(C)C)NC(=O)[C@H](CCCN)NC(=O)[C@H](Cc3ccc(C(N)=O)cc3)NC(=O)[C@H](Cc3ccc(-c4ccccc4)cc3)NC(=O)[C@H](Cc3ccc(C(N)=O)cc3)NC2=O)c1 [Compound 3698] ({CH2CO}-[Dab]Y(Carboxymethyl)D[Phe(3-Me)][Phe(4-CONH2)][Bip][Phe(4-CONH2)][Orn][dL][Dab][Cha][Val(3-OH)]SC[Dab][Aun]-OH; thioether N-14)
92.2 | CC(C)C[C@@H]1NC(=O)[C@H](Cc2c[nH]c3ccccc23)NC(=O)[C@H](CC(=O)O)NC(=O)[C@H](Cc2ccc(OCC(=O)O)cc2)NC(=O)[C@H](CCN)NC(=O)CSC[C@@H](C(=O)NCCOCCOCC(=O)NCCCCCCCCCCC(=O)O)NC(=O)[C@H](CO)NC(=O)[C@H](C(C)C)NC(=O)[C@H](CC2CCCCC2)NC(=O)[C@H](Cc2cnc[nH]2)NC(=O)[C@@H](CC(C)C)NC(=O)[C@H](CCCN)NC(=O)[C@H](C(C)C)NC(=O)[C@H](Cc2ccc(-c3ccccc3)cc2)NC1=O [Compound 3701] ({CH2CO}-[Dab]Y(Carboxymethyl)DWL[Bip]V[Orn][dL]H[Cha]VSC[AEEA][Aun]-OH; thioether N-14)
21.9 | Cc1cccc(C[C@@H]2NC(=O)[C@H](CC(=O)O)NC(=O)[C@H](Cc3ccc(OCC(=O)O)cc3)NC(=O)[C@H](C(C)O)NC(=O)CSC[C@@H](C(=O)N[C@@H](CCN)C(=O)NCCCCCCCCCCC(=O)O)NC(=O)[C@H](CO)NC(=O)[C@H](Cc3cnc[nH]3)NC(=O)[C@H](CC3CCCCC3)NC(=O)[C@H](CCN)NC(=O)[C@@H](CC(C)C)NC(=O)[C@H](CCCN)NC(=O)[C@H](Cc3ccc(OCC(=O)O)cc3)NC(=O)[C@H](Cc3ccc(-c4ccccc4)cc3)NC(=O)[C@H](Cc3ccc(C(=O)O)cc3)NC2=O)c1 (stereo partly drawn) [Compound 3704] ({CH2CO}-[Thr(3ξ)]Y(Carboxymethyl)D[Phe(3-Me)][Phe(4-COOH)][Bip]Y(Carboxymethyl)[Orn][dL][Dab][Cha]HSC[Dab][Aun]-OH; thioether N-14)
54.5 | Cc1cccc(C[C@@H]2NC(=O)[C@H](CC(=O)O)NC(=O)[C@H](Cc3ccc(OCC(=O)O)cc3)NC(=O)[C@H](Cc3ccccc3)NC(=O)CSC[C@@H](C(=O)N[C@@H](CCN)C(=O)NCCCCCCCCCCC(=O)O)NC(=O)[C@H](Cc3cnc[nH]3)NC(=O)[C@H](C(C)O)NC(=O)[C@H](CC3CCCCC3)NC(=O)[C@H](CCN)NC(=O)[C@@H](CC(C)C)NC(=O)[C@H](CCCN)NC(=O)[C@H](Cc3ccc(OCC(=O)O)cc3)NC(=O)[C@H](Cc3ccc(-c4ccccc4)cc3)NC(=O)[C@H](Cc3ccc(C(=O)O)cc3)NC2=O)c1 (stereo partly drawn) [Compound 3709] ({CH2CO}-FY(Carboxymethyl)D[Phe(3-Me)][Phe(4-COOH)][Bip]Y(Carboxymethyl)[Orn][dL][Dab][Cha][Thr(3ξ)]HC[Dab][Aun]-OH; thioether N-14)
